Paper PMC9126795 (eBioMedicine, 2022)
Where two headings read alike, the source gives them in different places.

Test system: patients with HCV and HBV liver cirrhosis
Type: in vivo, human
[1] = Phase 1 140 mg/m^2/4h (n = 3), Grade 1-2
[2] = Phase 1 140 mg/m^2/4h (n = 3), Grade 3
[3] = Phase 1 280 mg/m^2/4h (n = 6), Grade 1-2
[4] = Phase 1 280 mg/m^2/4h (n = 6), Grade 3
[5] = Phase 1 380 mg/m^2/4h (n = 6), Grade 1-2
[6] = Phase 1 380 mg/m^2/4h (n = 6), Grade 3
[7] = Phase 2a 280 mg/m^2/4h, Phase 1/ 2a (n = 3), Grade 1-2
[8] = Phase 2a 280 mg/m^2/4h, Phase 1/ 2a (n = 3), Grade 3
[9] = Phase 2a 280 mg/m^2/4h, Phase 2a only (n = 12), Grade 1-2
[10] = Phase 2a 280 mg/m^2/4h, Phase 2a only (n = 12), Grade 3

## PRI-724
Level 2, 280 mg/m^2/4 h
  Liver dysfunction at the recommended dose: minor and transient
[1]
  AE: Anaemia: 0
  AE: Ascites: 0
  AE: Decreased appetite: 0
  AE: Diarrhea: 0
  AE: Dyspepsia: 0
  AE: Erythema: 0
  AE: Headache: 0
  AE: Hepatic function abnormal: 1 (33%)
  AE: Hypertension: 0
  AE: Hyperuricaemia: 0
  AE: Insomnia: 0
  AE: Muscle spasms: 0
  AE: Nasopharyngitis: 1 (33%)
  AE: Nausea: 0
  AE: Pruritus: 0
  AE: Puncture site pain: 0
  AE: Pyrexia: 0
  AE: Spontaneous bacterial peritonitis: 0
  AE: Viral infection: 0
  AE: Vomiting: 0
  Laboratory abnormality: Alanine aminotransferase increased: 0
  Laboratory abnormality: Aspartate aminotransferase increased: 0
  Laboratory abnormality: Blood creatine phosphokinase increased: 0
  Laboratory abnormality: Blood creatinine increased: 0
  Laboratory abnormality: C-reactive protein increased: 0
  SAE: Anaemia: 0
  SAE: Hepatic function abnormal: 0
  SAE: Spontaneous bacterial peritonitis: 0
  SAE: Viral infection: 0
[2]
  AE: Anaemia: 0
  AE: Ascites: 0
  AE: Decreased appetite: 0
  AE: Diarrhea: 0
  AE: Dyspepsia: 0
  AE: Erythema: 0
  AE: Headache: 0
  AE: Hepatic function abnormal: 0
  AE: Hypertension: 0
  AE: Hyperuricaemia: 0
  AE: Insomnia: 0
  AE: Muscle spasms: 0
  AE: Nasopharyngitis: 0
  AE: Nausea: 0
  AE: Pruritus: 0
  AE: Puncture site pain: 0
  AE: Pyrexia: 0
  AE: Spontaneous bacterial peritonitis: 0
  AE: Viral infection: 0
  AE: Vomiting: 0
  Laboratory abnormality: Alanine aminotransferase increased: 0
  Laboratory abnormality: Aspartate aminotransferase increased: 0
  Laboratory abnormality: Blood creatine phosphokinase increased: 0
  Laboratory abnormality: Blood creatinine increased: 0
  Laboratory abnormality: C-reactive protein increased: 0
  SAE: Anaemia: 0
  SAE: Hepatic function abnormal: 0
  SAE: Spontaneous bacterial peritonitis: 0
  SAE: Viral infection: 0
[3]
  AE: Anaemia: 0
  AE: Ascites: 1 (17%)
  AE: Decreased appetite: 2 (33%)
  AE: Diarrhea: 1 (17%)
  AE: Dyspepsia: 1 (17%)
  AE: Erythema: 0
  AE: Headache: 1 (17%)
  AE: Hepatic function abnormal: 1 (17%)
  AE: Hypertension: 1 (17%)
  AE: Hyperuricaemia: 0
  AE: Insomnia: 1 (17%)
  AE: Muscle spasms: 2 (33%)
  AE: Nasopharyngitis: 1 (17%)
  AE: Nausea: 2 (33%)
  AE: Pruritus: 1 (17%)
  AE: Puncture site pain: 1 (17%)
  AE: Pyrexia: 0
  AE: Spontaneous bacterial peritonitis: 0
  AE: Viral infection: 0
  AE: Vomiting: 2 (33%)
  Laboratory abnormality: Alanine aminotransferase increased: 0
  Laboratory abnormality: Aspartate aminotransferase increased: 0
  Laboratory abnormality: Blood creatine phosphokinase increased: 0
  Laboratory abnormality: Blood creatinine increased: 0
  Laboratory abnormality: C-reactive protein increased: 0
  SAE: Anaemia: 0
  SAE: Hepatic function abnormal: 0
  SAE: Spontaneous bacterial peritonitis: 0
  SAE: Viral infection: 0
[4]
  AE: Anaemia: 0
  AE: Ascites: 0
  AE: Decreased appetite: 0
  AE: Diarrhea: 1 (17%)
  AE: Dyspepsia: 0
  AE: Erythema: 0
  AE: Headache: 0
  AE: Hepatic function abnormal: 0
  AE: Hypertension: 0
  AE: Hyperuricaemia: 0
  AE: Insomnia: 0
  AE: Muscle spasms: 0
  AE: Nasopharyngitis: 0
  AE: Nausea: 0
  AE: Pruritus: 0
  AE: Puncture site pain: 0
  AE: Pyrexia: 0
  AE: Spontaneous bacterial peritonitis: 0
  AE: Viral infection: 0
  AE: Vomiting: 0
  Laboratory abnormality: Alanine aminotransferase increased: 1 (17%)
  Laboratory abnormality: Aspartate aminotransferase increased: 1 (17%)
  Laboratory abnormality: Blood creatine phosphokinase increased: 0
  Laboratory abnormality: Blood creatinine increased: 0
  Laboratory abnormality: C-reactive protein increased: 0
  SAE: Anaemia: 0
  SAE: Hepatic function abnormal: 0
  SAE: Spontaneous bacterial peritonitis: 0
  SAE: Viral infection: 0
[5]
  AE: Anaemia: 0
  AE: Ascites: 1 (17%)
  AE: Decreased appetite: 1 (17%)
  AE: Diarrhea: 2 (33%)
  AE: Dyspepsia: 0
  AE: Erythema: 0
  AE: Headache: 1 (17%)
  AE: Hepatic function abnormal: 0
  AE: Hypertension: 0
  AE: Hyperuricaemia: 0
  AE: Insomnia: 1 (17%)
  AE: Muscle spasms: 0
  AE: Nasopharyngitis: 0
  AE: Nausea: 2 (33%)
  AE: Pruritus: 0
  AE: Puncture site pain: 0
  AE: Pyrexia: 2 (33%)
  AE: Spontaneous bacterial peritonitis: 0
  AE: Viral infection: 0
  AE: Vomiting: 1 (17%)
  Laboratory abnormality: Alanine aminotransferase increased: 0
  Laboratory abnormality: Aspartate aminotransferase increased: 1 (17%)
  Laboratory abnormality: Blood creatine phosphokinase increased: 1 (17%)
  Laboratory abnormality: Blood creatinine increased: 0
  Laboratory abnormality: C-reactive protein increased: 1 (17%)
  SAE: Anaemia: 0
  SAE: Hepatic function abnormal: 0
  SAE: Spontaneous bacterial peritonitis: 0
  SAE: Viral infection: 0
[6]
  AE: Anaemia: 0
  AE: Ascites: 0
  AE: Decreased appetite: 0
  AE: Diarrhea: 0
  AE: Dyspepsia: 0
  AE: Erythema: 0
  AE: Headache: 0
  AE: Hepatic function abnormal: 1 (17%)
  AE: Hypertension: 0
  AE: Hyperuricaemia: 0
  AE: Insomnia: 0
  AE: Muscle spasms: 0
  AE: Nasopharyngitis: 0
  AE: Nausea: 0
  AE: Pruritus: 0
  AE: Puncture site pain: 0
  AE: Pyrexia: 0
  AE: Spontaneous bacterial peritonitis: 0
  AE: Viral infection: 1 (17%)
  AE: Vomiting: 0
  Laboratory abnormality: Alanine aminotransferase increased: 0
  Laboratory abnormality: Aspartate aminotransferase increased: 0
  Laboratory abnormality: Blood creatine phosphokinase increased: 0
  Laboratory abnormality: Blood creatinine increased: 0
  Laboratory abnormality: C-reactive protein increased: 0
  SAE: Anaemia: 0
  SAE: Hepatic function abnormal: 1 (17%)
  SAE: Spontaneous bacterial peritonitis: 0
  SAE: Viral infection: 1 (17%)
Phase 1/2a, 27 patients
  Serious adverse events (SAEs) observed: four SAEs among three (one from phase 1 and two from phase 2a) of the 27 patients
[7]
  AE: Anaemia: 0
  AE: Ascites: 0
  AE: Decreased appetite: 1 (33%)
  AE: Diarrhea: 1 (33%)
  AE: Dyspepsia: 0
  AE: Erythema: 0
  AE: Headache: 0
  AE: Hepatic function abnormal: 0
  AE: Hypertension: 1 (33%)
  AE: Hyperuricaemia: 0
  AE: Insomnia: 1 (33%)
  AE: Muscle spasms: 0
  AE: Nasopharyngitis: 0
  AE: Nausea: 1 (33%)
  AE: Pruritus: 0
  AE: Puncture site pain: 1 (33%)
  AE: Pyrexia: 0
  AE: Spontaneous bacterial peritonitis: 0
  AE: Viral infection: 0
  AE: Vomiting: 1 (33%)
  Laboratory abnormality: Alanine aminotransferase increased: 0
  Laboratory abnormality: Aspartate aminotransferase increased: 0
  Laboratory abnormality: Blood creatine phosphokinase increased: 0
  Laboratory abnormality: Blood creatinine increased: 0
  Laboratory abnormality: C-reactive protein increased: 0
  SAE: Anaemia: 0
  SAE: Hepatic function abnormal: 0
  SAE: Spontaneous bacterial peritonitis: 0
  SAE: Viral infection: 0
[8]
  AE: Anaemia: 0
  AE: Ascites: 0
  AE: Decreased appetite: 0
  AE: Diarrhea: 0
  AE: Dyspepsia: 0
  AE: Erythema: 0
  AE: Headache: 0
  AE: Hepatic function abnormal: 0
  AE: Hypertension: 0
  AE: Hyperuricaemia: 0
  AE: Insomnia: 0
  AE: Muscle spasms: 0
  AE: Nasopharyngitis: 0
  AE: Nausea: 0
  AE: Pruritus: 0
  AE: Puncture site pain: 0
  AE: Pyrexia: 0
  AE: Spontaneous bacterial peritonitis: 0
  AE: Viral infection: 0
  AE: Vomiting: 0
  Laboratory abnormality: Alanine aminotransferase increased: 0
  Laboratory abnormality: Aspartate aminotransferase increased: 0
  Laboratory abnormality: Blood creatine phosphokinase increased: 0
  Laboratory abnormality: Blood creatinine increased: 0
  Laboratory abnormality: C-reactive protein increased: 0
  SAE: Anaemia: 0
  SAE: Hepatic function abnormal: 0
  SAE: Spontaneous bacterial peritonitis: 0
  SAE: Viral infection: 0
[9]
  AE: Anaemia: 0
  AE: Ascites: 0
  AE: Decreased appetite: 3 (25%)
  AE: Diarrhea: 2 (17%)
  AE: Dyspepsia: 0
  AE: Erythema: 2 (17%)
  AE: Headache: 1 (8%)
  AE: Hepatic function abnormal: 1 (8%)
  AE: Hypertension: 0
  AE: Hyperuricaemia: 1 (8%)
  AE: Insomnia: 0
  AE: Muscle spasms: 0
  AE: Nasopharyngitis: 1 (8%)
  AE: Nausea: 2 (17%)
  AE: Pruritus: 2 (17%)
  AE: Puncture site pain: 0
  AE: Pyrexia: 0
  AE: Spontaneous bacterial peritonitis: 0
  AE: Viral infection: 0
  AE: Vomiting: 1 (8%)
  Laboratory abnormality: Alanine aminotransferase increased: 2 (17%)
  Laboratory abnormality: Aspartate aminotransferase increased: 3 (25%)
  Laboratory abnormality: Blood creatine phosphokinase increased: 0
  Laboratory abnormality: Blood creatinine increased: 1 (8%)
  Laboratory abnormality: C-reactive protein increased: 0
  SAE: Anaemia: 0
  SAE: Hepatic function abnormal: 0
  SAE: Spontaneous bacterial peritonitis: 0
  SAE: Viral infection: 0
[10]
  AE: Anaemia: 2 (17%)
  AE: Ascites: 0
  AE: Decreased appetite: 0
  AE: Diarrhea: 1 (8%)
  AE: Dyspepsia: 0
  AE: Erythema: 0
  AE: Headache: 0
  AE: Hepatic function abnormal: 0
  AE: Hypertension: 1 (8%)
  AE: Hyperuricaemia: 1 (8%)
  AE: Insomnia: 0
  AE: Muscle spasms: 0
  AE: Nasopharyngitis: 0
  AE: Nausea: 0
  AE: Pruritus: 0
  AE: Puncture site pain: 0
  AE: Pyrexia: 0
  AE: Spontaneous bacterial peritonitis: 1 (8%)
  AE: Viral infection: 0
  AE: Vomiting: 0
  Laboratory abnormality: Alanine aminotransferase increased: 1 (8%)
  Laboratory abnormality: Aspartate aminotransferase increased: 0
  Laboratory abnormality: Blood creatine phosphokinase increased: 0
  Laboratory abnormality: Blood creatinine increased: 0
  Laboratory abnormality: C-reactive protein increased: 0
  SAE: Anaemia: 1 (8%)
  SAE: Hepatic function abnormal: 0
  SAE: Spontaneous bacterial peritonitis: 1 (8%)
  SAE: Viral infection: 0
All patients, 4/27
  AE liver dysfunction, patients: 15%
  AE vomiting, patients: 15%
All patients, 6/27
  AE loss of appetite, patients: 22%
  AE nausea, patients: 22%
All patients, 7/27
  AE diarrhoea, patients: 26%
Observed in the 380 mg/m^2/4 h cohort (liver dysfunction: grade 3)
  SAEs related to PRI-724: One of the four SAEs was possibly related to the PRI-724
